Active and inactive are the calls of the source. The rule behind the calls is not given here.
What was measured:
[1] = target: T1, Nuclear receptor ROR-gamma (Homo sapiens, UniProt P51449); assay: Inhibition of human full-length eGFP-tagged RORgammat expressed in human HUT78 T-cells assessed as inhibition of PMA/CD3 monoclonal antibody stimulated IL-17 secretion after 48 hrs by ELISA; type: cell-based
T1 sequence (P51449 whole entry): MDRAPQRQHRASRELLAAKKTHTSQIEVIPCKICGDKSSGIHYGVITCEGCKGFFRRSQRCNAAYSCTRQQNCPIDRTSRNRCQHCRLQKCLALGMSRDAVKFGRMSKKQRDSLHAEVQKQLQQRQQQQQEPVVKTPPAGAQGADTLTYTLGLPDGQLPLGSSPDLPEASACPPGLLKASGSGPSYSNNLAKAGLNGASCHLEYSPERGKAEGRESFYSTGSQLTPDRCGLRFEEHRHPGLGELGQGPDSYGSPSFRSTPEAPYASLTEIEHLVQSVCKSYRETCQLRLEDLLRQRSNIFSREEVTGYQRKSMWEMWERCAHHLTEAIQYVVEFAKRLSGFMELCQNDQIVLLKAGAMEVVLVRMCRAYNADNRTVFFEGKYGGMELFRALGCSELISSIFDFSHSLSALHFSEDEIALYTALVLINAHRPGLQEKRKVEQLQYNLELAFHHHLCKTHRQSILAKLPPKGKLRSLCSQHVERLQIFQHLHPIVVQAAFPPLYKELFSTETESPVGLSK

[2] = Inverse agonist activity at RORgammat in rat whole blood assessed as reduction in Con A/IL-23-stimulated IL-17 secretion after 72 hrs by ELISA
[3] = target: T1, Nuclear receptor ROR-gamma; assay: Inverse agonist activity at RORgammat in human whole blood assessed as reduction in Con A/IL-23-stimulated IL-17 secretion after 72 hrs by ELISA; type: tissue-based
[4] = Volume of distribution at steady state in Sprague-Dawley rat at 1 mg/kg, iv; type: ADME, organism-based; conditions: in vivo, read-out: Vdss
[5] = Terminal half life in Sprague-Dawley rat at 1 mg/kg, iv; type: ADME, organism-based; conditions: in vivo, read-out: beta t1/2 (converted)
[6] = Dose normalized AUC in DA rat at 5 mg/kg, po; type: ADME, organism-based; conditions: in vivo
[7] = Dose normalized Cmax in DA rat at 5 mg/kg, po; type: ADME, organism-based; conditions: in vivo
[8] = Tmax in DA rat at 5 mg/kg, po; type: ADME, organism-based; conditions: in vivo
[9] = target: T1, Nuclear receptor ROR-gamma; assay: Inhibition of Gal4-tagged RORgammat LBD (unknown origin) by cell based luciferase reporter gene assay
[10] = target: T2, Retinoic acid receptor RXR-alpha (Homo sapiens, UniProt P19793); assay: Inhibition of Gal4-tagged RXRalpha LBD (unknown origin) by cell based luciferase reporter gene assay
T2 sequence (P19793 whole entry): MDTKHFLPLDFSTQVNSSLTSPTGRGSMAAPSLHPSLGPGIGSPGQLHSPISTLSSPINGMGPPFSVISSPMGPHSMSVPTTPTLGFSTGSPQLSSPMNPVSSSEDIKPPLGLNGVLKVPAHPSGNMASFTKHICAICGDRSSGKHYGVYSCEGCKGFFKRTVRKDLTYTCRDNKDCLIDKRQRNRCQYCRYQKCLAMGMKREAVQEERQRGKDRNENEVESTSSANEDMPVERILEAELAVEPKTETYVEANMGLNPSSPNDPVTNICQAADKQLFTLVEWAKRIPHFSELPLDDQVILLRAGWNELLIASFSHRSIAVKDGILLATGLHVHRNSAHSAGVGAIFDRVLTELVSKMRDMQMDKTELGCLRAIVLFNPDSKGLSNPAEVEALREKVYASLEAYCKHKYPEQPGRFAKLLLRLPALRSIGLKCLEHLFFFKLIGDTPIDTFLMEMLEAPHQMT

[11] = target: T3, Peroxisome proliferator-activated receptor gamma (Homo sapiens, UniProt P37231); assay: Inhibition of Gal4-tagged PPARgamma LBD (unknown origin) by cell based luciferase reporter gene assay
T3 sequence (P37231 whole entry): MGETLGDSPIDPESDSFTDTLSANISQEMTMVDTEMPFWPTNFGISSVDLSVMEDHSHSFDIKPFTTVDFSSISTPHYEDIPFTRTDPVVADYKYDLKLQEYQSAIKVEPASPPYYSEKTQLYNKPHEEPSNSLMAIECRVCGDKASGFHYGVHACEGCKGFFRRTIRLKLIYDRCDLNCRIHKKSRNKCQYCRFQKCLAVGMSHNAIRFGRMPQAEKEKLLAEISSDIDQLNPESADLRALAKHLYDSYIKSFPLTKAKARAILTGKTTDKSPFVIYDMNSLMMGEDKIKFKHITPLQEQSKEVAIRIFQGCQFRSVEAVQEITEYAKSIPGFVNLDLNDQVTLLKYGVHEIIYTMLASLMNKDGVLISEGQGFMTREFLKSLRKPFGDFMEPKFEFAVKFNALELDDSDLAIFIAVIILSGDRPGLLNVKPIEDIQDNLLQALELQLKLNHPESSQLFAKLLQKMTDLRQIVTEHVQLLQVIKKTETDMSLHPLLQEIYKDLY

Glucocorticoid receptor = target: T4, Glucocorticoid receptor (Homo sapiens, UniProt P04150); assay: Inhibition of Gal4-tagged GR LBD (unknown origin) by cell based luciferase reporter gene assay
T4 sequence (P04150 whole entry): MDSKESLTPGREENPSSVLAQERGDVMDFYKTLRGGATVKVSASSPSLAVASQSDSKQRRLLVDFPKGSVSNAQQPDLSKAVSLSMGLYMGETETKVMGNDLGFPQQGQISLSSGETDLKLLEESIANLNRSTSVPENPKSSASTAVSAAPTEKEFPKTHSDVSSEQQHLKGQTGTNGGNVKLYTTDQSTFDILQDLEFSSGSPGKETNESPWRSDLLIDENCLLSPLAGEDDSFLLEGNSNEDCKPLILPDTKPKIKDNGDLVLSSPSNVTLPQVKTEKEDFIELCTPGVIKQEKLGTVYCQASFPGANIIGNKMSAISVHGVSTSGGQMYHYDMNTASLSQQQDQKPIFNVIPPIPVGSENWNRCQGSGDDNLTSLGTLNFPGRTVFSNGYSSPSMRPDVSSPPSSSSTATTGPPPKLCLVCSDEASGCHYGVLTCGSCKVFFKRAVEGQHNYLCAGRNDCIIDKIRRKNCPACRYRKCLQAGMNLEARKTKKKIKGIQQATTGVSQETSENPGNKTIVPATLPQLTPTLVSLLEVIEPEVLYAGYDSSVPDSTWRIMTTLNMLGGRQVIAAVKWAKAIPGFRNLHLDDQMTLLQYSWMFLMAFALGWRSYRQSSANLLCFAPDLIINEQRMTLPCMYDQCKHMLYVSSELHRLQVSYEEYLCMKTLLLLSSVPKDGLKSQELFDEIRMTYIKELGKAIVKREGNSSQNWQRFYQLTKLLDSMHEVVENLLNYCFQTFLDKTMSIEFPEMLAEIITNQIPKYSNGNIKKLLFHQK

[12] = target: T1, Nuclear receptor ROR-gamma; assay: Inhibition of human GAL4-DBD fused RORgammat LBD expressed in human Jurkat cells assessed as inhibition of receptor transactivation after 24 hrs by luciferase reporter gene assay; type: cell-based
Rattus norvegicus = assay: Anti-inflammatory activity in mBSA/CFA-immunized Lewis rat delayed-type hypersensitivity model assessed as reduction in ear swelling at 1 mg/kg, po via gavage administered twice daily for 2 days treated prior to mBSA/CFA challenge measured after up to 50 hrs; type: functional, organism-based

Cc1c(C2(C(F)(F)F)CC2)nc(C2CC2)n1-c1c(Cl)ccc(N2CC3(CC(C(=O)O)C3)C2)c1Cl (single isomer, unassigned; atropisomer)
IC50 [1]: 70 nM | IC50 [2]: 702 nM | IC50 [3]: 1340 nM | Vd [4]: 1 L/kg | half-life [5]: 5.3 h | AUC/dose [6]: 11391 nM·h | Cmax/dose [7]: 2448 nM | Tmax [8]: 1 h | IC50 [9]: 151 nM | IC50 [10]: > 10000 nM | IC50 [11]: > 10000 nM | IC50 (Glucocorticoid receptor): > 10000 nM | IC50 [12]: 151 nM | Activity (Rattus norvegicus): inactive
